Assay results: patent US20230128402A1 (The Trustees of Princeton University, priority 2020, published 2023)

Key:
[1] = test system: ALDH isoforms 1a1, 1a2, 1a3 and 3a1; type: cell-based, human
Method: The coding sequences of Aldh1a1, Aldh1a2, Aldh1a3 and Aldh3a1 were cloned from cDNA made from pooled human reference RNA samples. Cloned sequences flanked by Age1 and Xho1 restriction sites were inserted into the pLex lentiviral plasmid. Clones were sequenced and compared against NCBI expressed sequence tags ([…]) for accuracy. […]. Viruses were collected and filtered at 0.45 um, then cells were transduced using polybrene (8 μg/mL) for 12 hours, followed by culture with 1 μg/mL puromycin for the duration of experiments. All viral transduction and selection was performed on a cell population-wide basis.
(§1) Cells were counted, centrifuged and resuspended at 1,000,000 cells/mL in ALDEFLUOR™ buffer (Stemcell Technologies). ALDEFLUOR™ substrate (Stemcell Technologies, 1:200) and test compound or 1 mM DEAB were added to cell suspension and incubated at 37° C. for 45 minutes with vortexing every 15 minutes. Cells were centrifuged and resuspended in ALDEFLUOR™ buffer with DAPI at 5 μg/mL. Samples were analyzed with the BD LSR2 flow cytometry platform. Gating was performed using DEAB as a negative control.
ALDH isoforms 1a1, 1a2, 1a3 and 3a1 were expressed in MCF7 or SUM159 cells, which were subsequently used in an ALDEFLUOR™ assay.

mALDH1a3 = target: T1, mALDH1a3 (Mus musculus, UniProt Q9JHW9); test: Aldh1a3 enzyme inhibition assay, recombinant mALDH1a3; type: biochemical; details: resorufin fluorescence, 20° C.
T1 construct: made in house; host or cells: E. coli BL21-DE3, pET-Aldh1a3
T1 sequence (Q9JHW9 1-512): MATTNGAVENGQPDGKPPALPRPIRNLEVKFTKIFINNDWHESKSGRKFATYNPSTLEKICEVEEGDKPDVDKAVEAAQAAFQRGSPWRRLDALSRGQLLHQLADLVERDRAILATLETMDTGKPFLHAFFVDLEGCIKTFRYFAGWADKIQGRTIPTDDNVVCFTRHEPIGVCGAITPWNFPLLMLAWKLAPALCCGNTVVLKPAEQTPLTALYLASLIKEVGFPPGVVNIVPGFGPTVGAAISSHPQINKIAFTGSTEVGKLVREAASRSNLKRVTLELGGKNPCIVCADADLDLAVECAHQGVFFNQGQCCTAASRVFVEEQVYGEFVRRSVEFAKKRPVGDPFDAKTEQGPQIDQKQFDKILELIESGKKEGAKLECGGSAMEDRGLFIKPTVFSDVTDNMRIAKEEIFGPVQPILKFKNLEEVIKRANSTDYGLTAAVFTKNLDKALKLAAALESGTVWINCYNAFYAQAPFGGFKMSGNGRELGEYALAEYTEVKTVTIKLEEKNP
Description: (§2) Recombinant enzyme and inhibitor added immediately before assay. Reaction rate measured by resorufin fluorescence.

ALDH1a3 [2] = target: T2, ALDH1a3 (Homo sapiens, UniProt P47895); test: Aldh1a3 enzyme inhibition assay, recombinant hALDH1a3; type: biochemical; parameters: made in house; host or cells: E. coli BL21-DE3, pET-Aldh1a3; details: resorufin fluorescence, 20° C.
T2 sequence (P47895 1-512): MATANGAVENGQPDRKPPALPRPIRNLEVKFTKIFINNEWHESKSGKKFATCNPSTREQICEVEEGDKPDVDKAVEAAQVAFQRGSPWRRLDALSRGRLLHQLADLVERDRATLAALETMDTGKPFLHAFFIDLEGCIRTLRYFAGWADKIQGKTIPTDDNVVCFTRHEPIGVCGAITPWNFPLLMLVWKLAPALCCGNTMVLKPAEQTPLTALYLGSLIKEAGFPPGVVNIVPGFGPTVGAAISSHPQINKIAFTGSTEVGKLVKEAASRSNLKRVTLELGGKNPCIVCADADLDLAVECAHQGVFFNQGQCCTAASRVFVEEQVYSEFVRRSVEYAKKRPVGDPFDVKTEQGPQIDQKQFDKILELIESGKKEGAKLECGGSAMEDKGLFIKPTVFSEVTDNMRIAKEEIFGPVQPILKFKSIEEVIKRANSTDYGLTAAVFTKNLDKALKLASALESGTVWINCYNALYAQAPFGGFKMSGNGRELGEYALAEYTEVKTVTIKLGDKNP
Description: as §2

ALDH1a3 [3] = target: T2, ALDH1a3; test: ALDEFLUOR assay in SUM159-M1a-Aldh1a3 cells; type: cell-based; parameters: lentiviral vectors containing either the vector backbone or full-length human Aldh1a3; expressed in transfected cells; host or cells: SUM159-M1a human breast cancer cells, lentiviral pLex vector; details: for Inhi-bitory Activity at 100 nM (%) / Percent of Cells Positive for ALDEFLUOR ™ at 100 nM: SUM159-M1a-Aldh1a3 cells, compound at 100 nM
Method: as §1
Gating for background fluorescence was performed using 1 millimolar DEAB as a negative control.
The [inh-min]threshold was set at the lower bound of two standard deviations of control samples, while the IC50 threshold was set at 50% of the average of control samples.
An ALDEFLUOR™ assay was also used to assess the relative activity of several compounds described herein against SUM159-M1a-Aldh1a3 cells.

SUM 159-M1a cells [4] = details: shown in PCT/US2019/044278; cited from earlier work
SUM 159-M1a cells [5] = test: SUM 159-M1a xenograft metastasis, tail vein or intracardiac injection; type: in vivo, mouse; details: IP in conjunction with paclitaxel; FIGS. 9B and 10B
Method: All xenograft experiments were conducted on 8-week old female mice (athymic Nu/Nu, or NOD/SCID Gamma). Xenograft experiments were conducted using 125,000 SUM 159-M1a cells in 100 μL PBS for tail vein or intracardiac injection. Mice were randomized following injection. Bioluminescent imaging (BLI) was conducted using the IVIS 200 system and retroorbital luciferin injection. For drug treatment, MBE1 was given to mice via IP injection in conjunction with paclitaxel (5 mg/mL in 10% ethanol, 10% Kolliphor EL, 80% PBS) at the time intervals and dosages indicated in FIG. 9A (tail vein injection) and FIG. 10A (intracardiac injection).

[6] = Fast and refeed insulin secretion in db/db mice; type: in vivo, mouse; details: 40 mg per kg oral gavage once per day, 14 days
Method: C57/Bl6 mice homozygous for the spontaneous mutation (Lepr^db, referred to as db/db) that develop severe obesity and Type 2 Diabetes within 12 weeks were raised through standard husbandry practice and we separated into two groups followed by acclimatization for 9 days in single housing.
Daily food intake and body mass were monitored each day and baseline levels of plasma insulin and glucose were monitored to confirm identical group characteristics.
Compound MBE1 was dissolved to 200 mg/mL in DMSO followed by suspension into a 0.5% methycellulose, 0.5% Tween-80 solution. Mice were treated via oral gavage once per day to achieve 40 mg per kg body mass MBE1 or were treated with vehicle control. Mouse body mass and food consumption were monitored daily over 14 days.
At Day 14, food was removed from mouse cages for 16 hours, and then food was reintroduced. Plasma insulin levels were assayed by ELISA at baseline and at 1 hour, 2 hour and 4 hours following provision of chow and ad libitum feeding.

[7] = Pharmacokinetic profiling in mice
[8] = Toxicity experiments in C57Bl6 mice; type: in vivo, mouse; details: IP, ascending 12.5 to 200 mg/kg at 24h intervals; 25 mg/kg every 3 days for 18 days
Method: All mice were originally ordered from the Jackson Laboratory (Bar Harbor, Me.) and breeding was conducted in a specific pathogen-free (SPF) barrier facility. Toxicity experiments were performed on 8-12-week old male and female C57Bl6 mice. MBE1 was dissolved at 50 mg/mL in DMSO followed by a […] into Kolliphor EL, followed by a 1:5 dilution into PBS to yield a 5 mg/ml MBE1 solution, (10% DMSO, 10% Kolliphor EL, 80% PBS). This was administered via IP injection at ascending doses from 12.5 to 200 mg/kg body mass in a set of 3 mice at 24h intervals. Body condition score, food uptake, fecal/urine production, behavior and body weight were measured as toxicity readouts. Five mice were then treated every 3 days with 25 mg/kg MBE1 for 18 days.

Row | Molecule | IC50 (mALDH1a3) [nM] | IC50 (ALDH1a3 [2]) [nM] | Inhi-bitory Activity at 100 nM (%) (ALDH1a3 [3]) | Percent of Cells Positive for ALDEFLUOR ™ at 100 nM (ALDH1a3 [3]) [%] | ALDH isoform specificity, ALDEFLUOR-positive cells [1] | metastatic lesions in mice (SUM 159-M1a cells [4]) | lung and bone metastasis (BLI) (SUM 159-M1a cells [5]) | plasma insulin after fast and refeed challenge (ELISA) [6] | cage side observations, adverse reactions ([7]; 10 mg/kg oral gavage or 1 mg/kg intravenous, 0 hours to 24 hours post-dosing) | half-life ([7]; male, CD-1/C57BL/6, mouse, plasma, iv, 1 mg/kg) [h] | bioavailability ([7]; male, CD-1/C57BL/6, mouse, plasma, oral, 10 mg/kg) [%] | half-life ([7]; male, CD-1/C57BL/6, mouse, plasma, po, 10 mg/kg) [h] | time plasma concentrations exceed 5-fold the IC50 ([7]; mice, oral gavage (PO) and intravenous (IV)) [h] | acute or chronic toxicity [8] | inhibition of ALDH1a3 activity (percentage of ALDEFLUOR-positive cells) (ALDH1a3 [3]; 100 nM, FIG. 6A) | inhibitory activity detected at concentrations as low as (ALDH1a3 [3]; SUM 159-M1a-Aldh1a3 cells, FIG. 6B) [nM]
1 | CCc1cnccc1C(=O)Nc1cc2c(cc1F)NC(=O)CC2 [Compound 1, 3-ethyl-N-(7-fluoro-2-oxo-3,4-dihydro-1H-quinolin-6-yl)pyridine-4-carboxamide] | – | – | 99 | 0.73 | – | shrink metastatic lesions in mice without toxicity | effective therapeutic to treat established metastatic disease | effectively improve insulin secretion | no adverse reactions | 1.79 | 88 | 1.37 | > 10 | Neither experiment showed any indication of either acute or chronic toxicity | high-affinity compounds for the inhibition of ALDH1a3 activity | 2
2 | O=C1CCc2cc(NC(=O)c3ccncc3)c(F)cc2N1 [Compound 2] | > 5000 | > 5000 | 8 | 70 | – | – | – | – | – | – | – | – | – | – | – | –
3 | 3-ethyl-N-(2-oxo-3,4-dihydro-1H-quinolin-6-yl)pyridine-4-carboxamide [Compound 9] | 250 to 1000 | < 100 | 83 | 13 | – | – | – | – | – | – | – | – | – | – | – | –

Now from value to molecule, other results behind:

Row | IC50 (mALDH1a3) [nM] | IC50 (ALDH1a3 [2]) [nM] | Inhi-bitory Activity at 100 nM (%) (ALDH1a3 [3]) | Percent of Cells Positive for ALDEFLUOR ™ at 100 nM (ALDH1a3 [3]) [%] | Molecule | ALDH isoform specificity, ALDEFLUOR-positive cells [1] | metastatic lesions in mice (SUM 159-M1a cells [4]) | lung and bone metastasis (BLI) (SUM 159-M1a cells [5]) | plasma insulin after fast and refeed challenge (ELISA) [6] | cage side observations, adverse reactions ([7]; 10 mg/kg oral gavage or 1 mg/kg intravenous, 0 hours to 24 hours post-dosing) | half-life ([7]; male, CD-1/C57BL/6, mouse, plasma, iv, 1 mg/kg) [h] | bioavailability ([7]; male, CD-1/C57BL/6, mouse, plasma, oral, 10 mg/kg) [%] | half-life ([7]; male, CD-1/C57BL/6, mouse, plasma, po, 10 mg/kg) [h] | time plasma concentrations exceed 5-fold the IC50 ([7]; mice, oral gavage (PO) and intravenous (IV)) [h] | acute or chronic toxicity [8] | inhibition of ALDH1a3 activity (percentage of ALDEFLUOR-positive cells) (ALDH1a3 [3]; 100 nM, FIG. 6A) | inhibitory activity detected at concentrations as low as (ALDH1a3 [3]; SUM 159-M1a-Aldh1a3 cells, FIG. 6B) [nM]
4 | 100 to 250 | < 100 | 100 | 0.03 | 2-ethyl-N-(7-fluoro-2-oxo-3,4-dihydro-1H-quinolin-6-yl)benzamide [Compound 4] | specifically inhibits ALDH1a3 at concentrations below 10 μM | – | – | – | – | – | – | – | – | – | – | –
5 | 1000 to 5000 | 1000 to 5000 | 45 | 42 | Cc1ccc(C)c(CNc2ccc3c(c2)CCC(=O)N3)c1 [Compound 10] | – | – | – | – | – | – | – | – | – | – | – | –
6 | > 5000 | > 5000 | 18 | 63 | Cc1cnccc1C(=O)Nc1cc2c(cc1F)NC(=O)CC2 [Compound 15] | – | – | – | – | – | – | – | – | – | – | – | –
